According to patent US20230181678A1, “NOVEL ANTIBACTERIAL PEPTIDE OR PEPTIDE ANALOG AND USE THEREOF” (CAMP THERAPEUTICS INC., priority 2020, published 2023):

How the values were obtained:
Format in all cases: cell-based
[1] = test system: human red blood cells (hRBC); assay: Hemolysis assay; conditions: hRBCs, 37° C., 4 hours
Protocol: To identify toxicity of the peptides, human red blood cell (hRBC) hemolytic activity assay (hemolysis assay) was performed.
Specifically, percent hemolysis of human red blood cells (hRBC) was determined by comparing the cells incubated in 100% deionized water (DW) as a positive control and peptide-free PBS as a negative control. hRBCs were washed 3 times with PBS using centrifugation at 500 g for 5 min, and 5% (v/v) hematocrit was suspended in PBS buffer (Hyclone). The peptide was diluted using 2-fold serial dilution with PBS, and hRBCs were added at 2.5×10^8 cells to each well. The sample was incubated at 37° C. for 4 hours. After centrifugation at 1400 rpm for 5 minutes, 180 μL of the supernatant was transferred to a transparent flat-bottom 96-well plate. An amount of hemoglobin released by the peptide was determined by measuring absorbance at 405 nm using an EPOCH2 microplate reader (BioTek, Winooski, USA).
Hemolytic activity (%)=(absorbance of sample−absorbance of PBS)/(absorbance of 100% DW−A405 of PBS)×100

[2] = test system: inner membrane of E. coli ATCC 25922; assay: Enzyme assay, inner membrane leakage (β-galactosidase release, ONPG); conditions: 1.5 mM ONPG
Protocol: (§1) It was observed, through an enzyme assay, whether the sensitizing peptide destroyed the outer and inner membranes of Gram-negative bacteria. In the presence of the sensitizing peptide, it was observed whether in a case where 1.5 mM ONPG was used together therewith, β-galactosidase was released from E. coli ATCC 25922 for the inner membrane, and whether in a case where 200 μM CENTA was used together therewith, β-lactamase was released from E. coli NDM-1 for the outer membrane.
To determine leakage of the inner membrane, release of the cytoplasmic enzyme β-galactosidase was evaluated. The bacteria were diluted to OD600=1 and 1.5 mM ONPG (O-nitrophenyl-β-D-galactopyranoside) was added. Absorbance of a product of enzyme reaction was measured at 420 nm. The other procedures were carried out in the same manner as in the experiment for outer membrane destruction.

[3] = test system: outer membrane of E. coli NDM-1; assay: Enzyme assay, outer membrane leakage (β-lactamase release, CENTA); conditions: peptide 0.63 or 1.30 uM, 37° C., 1 h; 200 μM CENTA
Protocol: as §1
Specifically, to determine leakage of the outer membrane, activity of the β-lactamase released from the outer membrane was evaluated. New Delhi metallo-β-lactamase-1 (NDm-1)-producing E. coli cells were washed three times with DPBS and suspended in the same buffer. The cells were diluted to an OD600 of 0.2 and treated with the peptide at a concentration of 0.63 or 1.30 uM at 37° C. for 1 h. After centrifugation, the supernatant was incubated with 200 μM CENTATM β-lactamase substrate at 37° C. for 1 hour. An optical density was obtained by measuring absorbance of a product of enzyme reaction at 405 nm using a microplate reader (Molecular Devices Co., Menlo Park, Calif.).
The results are illustrated in FIGS. 12A and 12B. The y-axis is absorbance measured at 405 nm, and higher absorbance is observed as a higher amount of β-lactamase is released due to destruction of the membrane.

In the case of `CC[C@H](C)[C@H](NC(=O)CN)C(=O)NCC(=O)N[C@@H](C)C(=O)N[C@H](C(=O)N[C@@H](CC(C)C)C(=O)N[C@@H](CCCCN)C(=O)N[C@H](C(=O)N[C@@H](CC(C)C)C(=O)N[C@H](C(=O)N[C@H](C(=O)NCC(=O)N[C@@H](CC(C)C)C(=O)N1CCC[C@H]1C(=O)N[C@@H](C)C(=O)N[C@@H](CC(C)C)C(=O)N[C@H](C(=O)N[C@@H](CO)C(=O)N[C@@H](Cc1c[nH]c2ccccc12)C(=O)N[C@H](C(=O)N[C@@H](CCCCN)C(=O)N[C@@H](CCCNC(=N)N)C(=O)N[C@@H](CCCCN)C(=O)N[C@@H](CCCNC(=N)N)C(=O)N[C@@H](CCC(N)=O)C(=O)N[C@@H](CCC(N)=O)C(N)=O)[C@@H](C)CC)[C@@H](C)CC)[C@@H](C)O)[C@@H](C)O)C(C)C)C(C)C` [melittin, reference compound], the hemolytic activity [1] is reported as “exhibited hemolysis of hRBCs starting from low concentrations”, the “destruction of inner membrane (β-galactosidase release)” value [2] is reported as “destroyed both the inner and outer membranes of bacteria” and the “destruction of outer membrane (β-lactamase release)” value [3] is reported as “destroyed both the inner and outer membranes of bacteria”.
